Experiment [1] deals with T1, cannabinoid receptors (CBR) (Rattus norvegicus, UniProt P20272).
T1 construct: a: performed in rat whole brain membrane homogenates; from tissue; host or cells: Wistar rat whole brain membrane homogenate
In words: biochemical. The experiment is classed as binding. The method, then:
Tris-HCl, EGTA, NaCl, MgCl2 x 6H2O, GDP, the GTP analogue GTPγS, were purchased from Sigma-Aldrich (Budapest, Hungary). Fatty acid free bovine serum albumin (BSA) was purchased from Serva (Heidelberg, Germany). Naloxone was kindly provided by the company Endo Laboratories DuPont de Nemours (Wilmington, DE, USA). HS665 was provided by Schmidhammer’s group (University of Innsbruck, Austria). […]
purchased from Tocris Bioscience (Bristol, UK).
DMSO. All compounds were stored in 1 mM stock solution at -20 °C. The radiolabelled GTP analogue, [35S]GTPγS (specific activity: 1000 Ci/mmol) were purchased from Hartmann Analytic (Braunschweig, Germany). [3H]DAMGO (specific activity: 38.8 Ci/mmol),12 [3H]IleDelt II (specific activity: 19,6 Ci/mmol), [3H]WIN55,212-2 (specific activity: 13,1 Ci/mmol) and [3H]HS665 (specific activity: 36.62 Ci/mmol),3 were radiolabeled by the Laboratory of Chemical Biology group in BRC (Szeged, Hungary).
For membrane homogenate preparations male and female Wistar rats (250-300 g body weight) and male guinea pigs (~700 g body weight, LAL/HA/BR strain) were used. Rats were housed in the local animal house of BRC (Szeged, Hungary), while guinea pigs were housed in LAB-ÁLL Bt.
(Budapest, Hungary). All the animals were kept in a temperature controlled room (21-24 °C) under a 12:12 light and dark cycle and were provided with water and food ad libitum. All housing and experiments were conducted in accordance with the European Communities Council Directives (2010/63/EU) and the Hungarian Act for the Protection of Animals in Research (XXVIII.tv. 32.§).
The total number of animals as well as their suffering was minimized.
Rat and guinea pig brain membrane homogenate preparation for binding assays Rats and guinea pigs were decapitated and their brains were quickly removed. The brains were prepared for membrane preparation as previously described,4 and partly used for binding experiments and partly were further prepared for the [35S]GTPγS binding experiments. Briefly the brains were homogenized, centrifuged in ice-cold 50 mM Tris-HCl (pH 7.4) buffer and incubated at 37 °C for 30 min in a shaking water-bath. After incubation the centrifugation was repeated as described above and the final pellet was suspended in 50 mM Tris-HCl pH 7.4 buffer containing 0.32 M sucrose, and stored at -80 °C. For the [35S]GTPγS binding experiments the final pellet of rat […]
brain membrane homogenate was suspended in ice-cold TEM (Tris-HCl, EGTA, MgCl2) and stored at -80 °C for further use.
Radioligand competition binding experiments
Aliquots of frozen rat brain membrane homogenates were centrifuged (18 000 rpm, 20 min, 4 °C) to remove sucrose and the pellets were suspended in 50 mM Tris-HCl buffer (pH 7.4). Membranes containing 0.4-0.8 mg/mL of protein were incubated in a final volume of 1 mL in the presence of unlabeled 5, 10 and 9 in increasing concentrations (10-11-10-5 M) in the presence of the appropriate radioligand in ~1 nM concentrations at certain temperature and amount of time depending on the radioligand ([3H]DAMGO and [3H]IleDelt II: 35 °C for 45 min; [3H]HS665: 30 °C, 45 min; [3H]WIN55,212-2: 30 °C for 60 min). Experiments performed with [3H]HS665 where incubated […]
more kappa receptors than the rat brain), while the rest of the radioligands were incubated together with rat whole brain membrane homogenates. Additionally, in experiments performed with […]
increasing concentrations (10-11-10-5 M) together with 50 mM Tris/HCl, 2.5 mM EGTA, 5 mM MgCl2 and 0.5 mg/mL fatty acid free BSA (pH 7.4). The level of non-specific binding was […]
binding was determined in the absence of unlabeled compounds. The reaction was terminated by rapid filtration under vacuum (Brandel M24R Cell Harvester), and washed three times with 5 mL ice-cold 50 mM Tris-HCl or 50 mM Tris/HCl, 2.5 mM EGTA, 5 mM MgCl2, 0.5 % BSA (pH 7.4) in case of [3H]WIN55,212-2. The filtration was accomplished through Whatman GF/C ([3H]DAMGO, [3H]IleDelt II and [3H]HS665) or GF/B ([3H]WIN55,212-2) glass fibers. In case of […]

The next experiment deals with G-protein. In words: Functional [35S]GTPγS binding assay on rat brain membrane homogenates. The experiment is classed as biochemical. Conditions: rat brain membrane homogenates; for Emax ± S.E.M. (maximal G-protein efficacy): basal activity = 100%; for LogEC50 ± S.E.M. (ligand potency): logarithm of EC50, negative sign printed. The method, then:
The experiments were performed by [35S]GTPγS binding assays to control the GDP to GTP exchange of the α-subunit of Gi-protein. […] We examined the opioid receptor binding affinity of 5 in competition binding experiments, using opioid receptor selective radioligands. […]
Functional [35S]GTPγS binding experiments
The functional [35S]GTPγS binding experiments were performed as previously described,5,6 with modifications. Briefly the rat brain membrane homogenates containing ~10 µg/mL protein were incubated at 30 °C for 60 min in Tris-EGTA buffer (pH 7.4) composed of 50 mM Tris-HCl, 1 mM EGTA, 3 mM MgCl2, 100 mM NaCl, containing 20 MBq/0.05 cm3 [35S]GTPγS (0.05 nM) and […]
compound 9 together with excess GDP (30 µM) in a final volume of 1 mL. Total binding was measured in the absence of test compounds, non-specific binding was determined in the presence of 10 µM unlabelled GTPγS. The bound and unbound [35S]GTPγS was separated as described in the […]
competition binding assays section through Whatmann GF/B glass fibers. The radioactivity of the filters was also detected as described above. [35S]GTPγS binding experiments were performed in triplicates and repeated at least three times.
The specific binding of all radiolabeled compounds was calculated by the subtraction of non-specific binding from total binding and was given in percentage. The data was normalized to total specific binding, which was settled 100%, which in case of [35S]GTPγS also represents the basal activity of the G-protein. Experimental data were presented as means ± S.E.M in the function of the applied ligand concentration range in logarithm form. Points were fitted with the professional curve fitting program, GraphPad Prism 5.0 (GraphPad Prism Software Inc., San Diego, CA), using non-linear regression. In the radioligand competition binding assays the ‘One-site competition’, while in [35S]GTPγS binding assays the ‘Sigmoid dose-response’ equation was applied to determine IC50 (unlabeled ligand affinity) and the maximum G-protein efficacy (Emax) and ligand potency (EC50), respectively. For IC50 and EC50 values standard error is only given in their logarithm form by the curve fitting program due to the data representation. In competition binding experiments the Ki value was calculated according to Cheng-Prusoff equation.7 […]
binding assays. In figure B, 5 is indicated again for better comparison. Figures represents the specific binding of [35S]GTPγS in percentage in the presence of increasing concentrations (10-10-10-5 M) of the indicated ligands in rat brain membrane homogenates. “Basal” on the x-axis indicates the basal activity of the monitored G-protein, which is measured in the absence of the compounds and also represents the total specific binding of [35S]GTPγS. The level of basal activity was defined as 100% and is presented with a dotted line. Points represent means ± S.E.M. for at least three experiments performed in triplicate.
In general terms: GTPγS is a poorly hydrolysed GTP analogue; its binding reports G protein activation.

Where [2] appears, read: rat whole brain membrane homogenates, Cheng-Prusoff, read-out: Ki, [3H]WIN55,212 (CBR).
Setting [3] is: rat whole brain membrane homogenates, logarithm of IC50, negative sign printed, read-out: logIC50 ± S.E.M., [3H]WIN55,212 (CBR) (converted).

This is an account of results in paper PMC6009935 (Journal of Enzyme Inhibition and Medicinal Chemistry, 2017).

Where two headings read alike, the source gives them in different places.

Broadly, the Ki is a dissociation constant, usually derived from enzyme kinetics or from competition with a known ligand. Usually EC50 stands for the concentration needed to bring the measured effect to its halfway point. A high value points to weaker potency.

T1 sequence (P20272 whole entry): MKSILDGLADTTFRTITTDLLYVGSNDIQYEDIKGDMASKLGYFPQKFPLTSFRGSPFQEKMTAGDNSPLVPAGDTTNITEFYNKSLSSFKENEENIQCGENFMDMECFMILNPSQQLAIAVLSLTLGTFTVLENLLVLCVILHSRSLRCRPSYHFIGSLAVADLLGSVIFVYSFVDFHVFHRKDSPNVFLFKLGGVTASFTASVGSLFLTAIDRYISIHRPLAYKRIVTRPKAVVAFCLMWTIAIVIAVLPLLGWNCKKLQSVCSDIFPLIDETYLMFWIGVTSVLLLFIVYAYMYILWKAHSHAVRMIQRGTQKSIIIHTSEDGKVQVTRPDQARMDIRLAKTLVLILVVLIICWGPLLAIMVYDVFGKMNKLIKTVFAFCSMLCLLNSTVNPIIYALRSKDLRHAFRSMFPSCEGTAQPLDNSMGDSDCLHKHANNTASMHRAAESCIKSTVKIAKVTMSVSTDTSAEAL

Take `Cc1c(C(=O)NC2CCN(C(=O)OC(C)(C)C)CC2)nn(-c2ccc(Cl)cc2Cl)c1-n1cccc1` [Compound 3]: the Ki in experiment [1] (setting [2]) was determined as 193 nM. Further, in experiment [1] (setting [3]), the IC50 was 295 nM. On G-protein, the EC50 was 2690 nM, the “Emax ± S.E.M. (maximal G-protein efficacy)” value came out at 12.78 ± 8.48% and the “LogEC50 ± S.E.M. (ligand potency)” value is −5.57 ± 0.15.

In experiment [1], `Cc1c(C(=O)NN2CCCCC2)nn(-c2ccc(Cl)cc2Cl)c1-n1cccc1` [Compound 1] gave an IC50 of 195 nM and a Ki of 126 nM. In addition, on G-protein, the EC50 is 1620 nM, the “Emax ± S.E.M. (maximal G-protein efficacy)” value is 26 ± 5.27% and the “LogEC50 ± S.E.M. (ligand potency)” value is reported as −5.78 ± 0.11.

For `Cc1c(C(=O)NN2CCCCC2)nn(-c2ccc(Cl)cc2Cl)c1-c1ccc(Cl)cc1` [Rimonabant, reference compound], on G-protein, the response was half-maximal at 2200 nM (EC50), the “Emax ± S.E.M. (maximal G-protein efficacy)” value is given as 17.5 ± 5.72% and the “LogEC50 ± S.E.M. (ligand potency)” value is listed as −5.65 ± 0.12.

With `Cc1c(C(=O)NC2CCCCC2)nn(-c2ccc(Cl)cc2Cl)c1-n1cccc1` [Compound 4], in experiment [1], the IC50 was 575 nM and the inhibition constant Ki was 370 nM. For the same compound, on G-protein, the midpoint of the response, the EC50, lay at 1870 nM; the “Emax ± S.E.M. (maximal G-protein efficacy)” value came to 55.95 ± 8.44%; the “LogEC50 ± S.E.M. (ligand potency)” value is −5.72 ± 0.3.

As for `Cc1c(C(=O)N2CCN(C(=O)OCc3ccccc3)CC2)nn(-c2ccc(Cl)cc2Cl)c1-n1cccc1` [Compound 2], the Ki in experiment [1] (setting [2]) stood at 710 nM. Moreover, the IC50 in experiment [1] (setting [3]) was 1100 nM. In addition, on G-protein, the EC50 is 1540 nM, the “Emax ± S.E.M. (maximal G-protein efficacy)” value came to 22.95 ± 4.3% and the “LogEC50 ± S.E.M. (ligand potency)” value is −5.81 ± 0.09.
